Assays:
[1] = molecular target: T1, HMOX2 Heme oxygenase 2 (Homo sapiens, UniProt P30519); experiment: Cysteine liganding, probe competition; format: binding; settings: for Liganded: HMOX2 Res# 265, uniprot P30519
T1 construct: Cells were resuspended in cold PBS on ice and sonicated with a probe sonicator to achieve lysis; endogenous in cells
T1 sequence (P30519 1-316): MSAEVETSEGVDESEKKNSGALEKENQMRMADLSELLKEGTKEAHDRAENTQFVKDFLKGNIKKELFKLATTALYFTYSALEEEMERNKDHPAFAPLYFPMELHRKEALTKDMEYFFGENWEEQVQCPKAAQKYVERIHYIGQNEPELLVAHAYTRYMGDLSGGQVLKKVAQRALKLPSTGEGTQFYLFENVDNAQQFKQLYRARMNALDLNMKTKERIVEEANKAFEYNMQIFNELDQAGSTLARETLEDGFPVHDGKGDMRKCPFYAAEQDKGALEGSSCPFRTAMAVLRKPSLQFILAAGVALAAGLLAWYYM
How it was run: (§1)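 Read-out is loss of desthiobiotin iodoacetamide labelling at cysteines, measured on streptavidin-enriched tryptic peptides. Compound preincubation ran 1 hr at 25° C in PBS lysate holding 5 mg/ml proteome before the probe was added.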

[2] = molecular target: T2, NOP56 Nucleolar protein 56 (Homo sapiens, UniProt O00567); experiment: Cysteine liganding, probe competition; format: binding
T2 construct: Cells were resuspended in cold PBS on ice and sonicated with a probe sonicator to achieve lysis; endogenous in cells
T2 sequence (O00567 1-594): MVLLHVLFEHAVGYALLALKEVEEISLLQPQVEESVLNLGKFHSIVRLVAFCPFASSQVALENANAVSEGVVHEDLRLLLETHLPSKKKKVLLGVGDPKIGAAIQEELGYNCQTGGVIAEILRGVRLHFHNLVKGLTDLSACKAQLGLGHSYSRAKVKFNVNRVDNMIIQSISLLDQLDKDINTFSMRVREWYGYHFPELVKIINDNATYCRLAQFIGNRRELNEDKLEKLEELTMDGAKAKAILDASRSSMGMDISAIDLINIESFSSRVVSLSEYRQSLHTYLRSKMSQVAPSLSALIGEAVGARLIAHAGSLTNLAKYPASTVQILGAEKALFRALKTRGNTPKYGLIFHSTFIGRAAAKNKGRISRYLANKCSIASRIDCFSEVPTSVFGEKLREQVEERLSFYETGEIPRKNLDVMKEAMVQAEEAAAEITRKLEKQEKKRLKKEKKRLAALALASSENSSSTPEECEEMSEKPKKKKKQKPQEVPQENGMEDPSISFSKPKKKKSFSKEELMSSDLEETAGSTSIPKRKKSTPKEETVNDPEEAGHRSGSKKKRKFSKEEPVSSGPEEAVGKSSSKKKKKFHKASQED
How it was run: as §1

[3] = uniprot O00567, in % (unit assumed)

Row | Structure (SMILES) | Liganded [1] | Liganded ([2]; NOP56 Res# 211, uniprot O00567) | 100 Max ([1]; uniprot P30519) | 100 ave ([1]; uniprot P30519) | 500 ave ([1]; uniprot P30519) | 500 Max ([1]; uniprot P30519, in % (unit assumed)) | 100 ave ([2]; uniprot O00567) | 500 ave ([2]; uniprot O00567) | 100 Max [2, 3] | 500 Max [2, 3]
1 | COc1ccc2c(c1)CCCN2C(=O)CCl [KB02] | YES | YES | – | – | – | – | – | – | – | –
2 | O=C(CCl)Nc1cc(C(F)(F)F)cc(C(F)(F)F)c1 [KBO3] | YES | – | 93.81 | 81.435 | 88.6 | 98.54 | 27.36 | 68.12 | 51.21 | 68.12
